Patent US10344025B2, “GLS1 inhibitors for treating disease” (Board of Regents, The University of Texas System, priority 2014, dated 2019)

Experiments:
[1] = molecular target: purified recombinant human GAC (GLS1) (Homo sapiens (Human), UniProt O94925); assay: GLS1 Enzymatic Activity Assay (dual-coupled enzymatic assay, resorufin/Amplex UltraRed readout); format: biochemical;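 also: glutamate from GAC coupled via glutamate oxidase and peroxidase to resorufin, read as fluorescence (ex 530, em 590 nm) kinetically or at 20 min, four-parameter logistic IC50 fit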
purified recombinant human GAC (GLS1), sequence (O94925 other isoform, or with tags, fused parts or gaps): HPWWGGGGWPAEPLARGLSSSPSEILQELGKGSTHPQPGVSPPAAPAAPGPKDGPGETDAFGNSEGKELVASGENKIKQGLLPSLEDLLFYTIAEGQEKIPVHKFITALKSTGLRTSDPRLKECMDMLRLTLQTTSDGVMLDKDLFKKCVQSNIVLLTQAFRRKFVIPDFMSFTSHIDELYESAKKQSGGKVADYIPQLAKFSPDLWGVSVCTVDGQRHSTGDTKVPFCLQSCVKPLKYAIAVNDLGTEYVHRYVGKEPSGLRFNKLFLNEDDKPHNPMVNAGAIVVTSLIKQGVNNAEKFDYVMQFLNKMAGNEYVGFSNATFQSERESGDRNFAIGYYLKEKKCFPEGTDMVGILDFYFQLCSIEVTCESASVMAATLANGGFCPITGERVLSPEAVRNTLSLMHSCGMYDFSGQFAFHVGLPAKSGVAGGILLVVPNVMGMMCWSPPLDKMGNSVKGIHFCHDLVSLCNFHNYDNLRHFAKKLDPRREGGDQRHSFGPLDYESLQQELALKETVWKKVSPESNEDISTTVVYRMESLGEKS

A549 cells = assay: Proliferation Assay (A549 viability, Cell Titer Fluor, 72 hours); format: cell-based; conditions: Homo sapiens, A549, 72 h
Method in brief: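 A549 cells seeded at 1000 cells/well, rested 24 h, then exposed to compound in 0.5% DMSO for 72 h at 37 °C. Viability read by Cell Titer Fluor fluorescence; IC50 from four-parameter logistic fit.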

Structure (SMILES)	IC50 [1]	EC50 (A549 cells)
Cc1ccc(CNC(=O)c2cn(CCC(F)Cn3cc(NC(=O)Cc4ccc(C)nc4)nn3)nn2)cn1 (centres unmarked) [Example 346, 1-(3-fluoro-4-{4-[2-(6-methylpyridin-3-yl)acetamido]-1H-1,2,3-triazol-1-yl}butyl)-N-[(6-methylpyridin-3-yl)methyl]-1H-1,2,3-triazole-4-carboxamide]	< 100 nM	500 to 5000 nM
CNC(=O)c1cn(C[C@H](F)CCc2nnc(NC(=O)Cc3cccc(OC(F)(F)F)c3)s2)nn1 [Example 240, (R)-1-(2-fluoro-4-(5-(2-(3-(trifluoromethoxy)phenyl)acetamido)-1,3,4-thiadiazol-2-yl)butyl)-N-methyl-1H-1,2,3-triazole-4-carboxamide]	< 100 nM	< 100 nM
CNC(=O)c1cn(CCCCc2ccc(NC(=O)Cc3cncc(-c4cccc(OC(F)(F)F)c4)c3)nn2)nn1 [Example 188, N-methyl-1-(4-(6-(2-(5-(3-(trifluoromethoxy)phenyl)pyridin-3-yl)acetamido)pyridazin-3-yl)butyl)-1H-1,2,3-triazole-4-carboxamide]	< 100 nM	< 100 nM
O=C(NCc1cccc(OC(F)(F)F)c1)c1cn(CCCCc2nnc(C(=O)NCc3ccccn3)s2)nn1 [Example 47, N-(pyridin-2-ylmethyl)-5-{4-[4-({[3-(trifluoromethoxy)phenyl]methyl}carbamoyl)-1H-1,2,3-triazol-1-yl]butyl}-1,3,4-thiadiazole-2-carboxamide]	< 100 nM	100 to 500 nM
O=C(NCc1cccc(C(F)(F)F)n1)c1cn(CCC(F)Cn2cc(C(=O)NCc3cc(OC(F)(F)F)ccc3F)nn2)nn1 (centres unmarked) [Example 422, 1-{2-fluoro-4-[4-({[6-(trifluoromethyl)pyridin-2-yl]methyl}carbamoyl)-1H-1,2,3-triazol-1-yl]butyl}-N-{[-fluoro-5-(trifluoromethoxy)phenyl]methyl}-1H-1,2,3-triazole-4-carboxamide]	< 100 nM	< 100 nM
O=C(CC1CC1)Nc1cn(CCCCn2cc(C(=O)NCc3cccc(OC(F)(F)F)c3)nn2)nn1 [Example 276, 1-{4-[4-(2-cyclopropylacetamido)-1H-1,2,3-triazol-1-yl]butyl}-N-{[3-(trifluoromethoxy)phenyl]methyl}-1H-1,2,3-triazole-4-carboxamide]	100 to 500 nM	100 to 500 nM
O=C(NCc1cc(C(F)(F)F)ccn1)c1cn(CCCCn2cc(C(=O)NC3CCCC3)nn2)nn1 [Example 104, 1-{4-[4-(cyclopentylcarbamoyl)-1H-1,2,3-triazol-1-yl]butyl}-N-{[4-(trifluoromethyl)pyridin-2-yl]methyl}-1H-1,2,3-triazole-4-carboxamide]	500 to 5000 nM	500 to 5000 nM
O=C(NCc1cncc(C(F)(F)F)c1)c1cn(CC(F)CCc2nnc(C(=O)NCc3ccc(C(F)(F)F)cn3)s2)nn1 (centres unmarked) [Example 488, 5-{3-fluoro-4-[4-({[5-(trifluoromethyl)pyridin-3-yl]methyl}carbamoyl)-1H-1,2,3-triazol-1-yl]butyl}-N-{[5-(trifluoromethyl)pyridin-2-yl]methyl}-1,3,4-thiadiazole-2-carboxamide]	< 100 nM	< 100 nM
O=C(Cc1cccnc1)Nc1ccc(CCCCc2nnc(C(=O)NCCc3ccccc3)s2)nn1 [Example 27]	< 100 nM	< 100 nM
COC(=O)Nc1ccc(CCCCn2cc(C(=O)NCc3cc(C(F)(F)F)ccn3)nn2)nn1 [Example 224, methyl (6-(4-(4-(((4-(trifluoromethyl)pyridin-2-yl)methyl)carbamoyl)-1H-1,2,3-triazol-1-yl)butyl)pyridazin-3-yl)carbamate]	100 to 500 nM	100 to 500 nM
O=C(NCc1cc(OC(F)(F)F)ccc1F)c1cn(CC(F)CCc2nnc(NC(=O)C3CCCCO3)s2)nn1 (centres unmarked) [Example 574, 1-(2-fluoro-4-(5-(tetrahydro-2H-pyran-2-carboxamido)-1,3,4-thiadiazol-2-yl)butyl)-N-(2-fluoro-5-(trifluoromethoxy)benzyl)-1H-1,2,3-triazole-4-carboxamide]	< 100 nM	< 100 nM
Cc1ccc(CNC(=O)c2cn(CCCCn3cc(NC(=O)CC4CCCC4)nn3)nn2)cn1 [Example 317, 1-{4-[4-(2-cyclopentylacetamido)-1H-1,2,3-triazol-1-yl]butyl}-N-[(6-methylpyridin-3-yl)methyl]-1H-1,2,3-triazole-4-carboxamide]	100 to 500 nM	100 to 500 nM
CNC(=O)c1cn(CCCCc2ccc(NC(=O)Cc3cccc(Br)c3)nn2)nn1 [Example 542, 1-(4-{6-[2-(3-bromophenyl)acetamido]pyridazin-3-yl}butyl)-N-methyl-1H-1,2,3-triazole-4-carboxamide]	< 100 nM	100 to 500 nM
N#CCNC(=O)c1nnc(CCC(F)Cn2cc(C(=O)NCc3cccc(OC(F)(F)F)c3)nn2)s1 (centres unmarked) [Example 515, N-(cyanomethyl)-5-{3-fluoro-4-[4-({[3-(trifluoromethoxy)phenyl]methyl}carbamoyl)-1H-1,2,3-triazol-1-yl]butyl}-1,3,4-thiadiazole-2-carboxamide]	< 100 nM	100 to 500 nM
O=C(Cc1ccncc1)Nc1ccc(CCCCn2cc(C(=O)NCc3cc(OC(F)(F)F)ccc3F)nn2)nn1 [Example 590, N-(2-fluoro-5-(trifluoromethoxy)benzyl)-1-(4-(6-(2-(pyridin-4-yl)acetamido)pyridazin-3-yl)butyl)-1H-1,2,3-triazole-4-carboxamide]	< 100 nM	< 100 nM
O=C(NCC1CCCCO1)c1cn(CCC(F)Cn2cc(C(=O)NCc3cc(C(F)(F)F)ccn3)nn2)nn1 (centres unmarked) [Example 472, 1-(2-fluoro-4-{4-[(oxan-2-ylmethyl)carbamoyl]-1H-1,2,3-triazol-1-yl}butyl)-N-{[4-(trifluoromethyl)pyridin-2-yl]methyl}-1H-1,2,3-triazole-4-carboxamide]	100 to 500 nM	100 to 500 nM
O=C(CN1CCC(F)(F)C1)Nc1cn(CCCCn2cc(C(=O)NCc3cc(OC(F)(F)F)ccc3F)nn2)nn1 [Example 356, 1-(4-{4-[2-(3,3-difluoropyrrolidin-1-yl)acetamido]-1H-1,2,3-triazol-1-yl}butyl)-N-{[2-fluoro-5-(trifluoromethoxy)phenyl]methyl}-1H-1,2,3-triazole-4-carboxamide]	< 100 nM	< 100 nM
CC(C)(CO)CNC(=O)c1cn(CCCCc2ccc(NC(=O)Cc3cccc(OC(F)(F)F)c3)nn2)nn1 [Example 560, N-(3-hydroxy-2,2-dimethylpropyl)-1-[4-(6-{2-[3-(trifluoromethoxy)phenyl]acetamido}pyridazin-3-yl)butyl]-1H-1,2,3-triazole-4-carboxamide]	< 100 nM	100 to 500 nM
CNC(=O)c1nnc(CCCCc2ccc(NC(=O)Cc3cc(C(F)(F)F)ccn3)nn2)s1 [Example 229, N-methyl-5-(4-(6-(2-(4-(trifluoromethyl)pyridin-2-yl)acetamido)pyridazin-3-yl)butyl)-1,3,4-thiadiazole-2-carboxamide]	< 100 nM	< 100 nM

Second part, the molecule after the results:

IC50 [1]	EC50 (A549 cells)	Structure (SMILES)
< 100 nM	< 100 nM	COc1cccc(CNC(=O)c2cn(CCC(F)Cn3cc(C(=O)NCc4cc(C(F)(F)F)ccn4)nn3)nn2)c1 (centres unmarked) [Example 468, 1-[2-fluoro-4-(4-{[(3-methoxyphenyl)methyl]carbamoyl}-1H-1,2,3-triazol-1-yl)butyl]-N-{[4-(trifluoromethyl)pyridin-2-yl]methyl}-1H-1,2,3-triazole-4-carboxamide]
< 100 nM	< 100 nM	CNC(=O)c1cn(CC(F)CCc2ccc(NC(=O)Cc3cc(OC(F)F)ccn3)nn2)nn1 (centres unmarked) [Example 274, 1-(4-(6-(2-(4-(difluoromethoxy)pyridin-2-yl)acetamido)pyridazin-3-yl)-2-fluorobutyl)-N-methyl-1H-1,2,3-triazole-4-carboxamide]
< 100 nM	< 100 nM	O=C(Cc1cc(OC(F)(F)F)ccc1F)Nc1ccc(CCCCn2cc(C(=O)NC3CC3)nn2)nn1 [Example 583, N-cyclopropyl-1-(4-(6-(2-(2-fluoro-5-(trifluoromethoxy)phenyl)acetamido)pyridazin-3-yl)butyl)-1H-1,2,3-triazole-4-carboxamide]
< 100 nM	100 to 500 nM	O=C(NCc1cc(OC(F)(F)F)ccc1F)c1cn(CCCCc2ccc(NC(=O)C3CC3)nn2)nn1 [Example 591]
< 100 nM	< 100 nM	CNC(=O)c1cn(CC(F)CCc2ccc(NC(=O)Cc3cc(C4CCOCC4)ccn3)nn2)nn1 (centres unmarked) [Example 253, 1-(2-fluoro-4-(6-(2-(4-(tetrahydro-2H-pyran-4-yl)pyridin-2-yl)acetamido)pyridazin-3-yl)butyl)-N-methyl-1H-1,2,3-triazole-4-carboxamide]
< 100 nM	< 100 nM	O=C(NCc1cccc(N2CCCC2)c1)c1cn(CCCCn2cc(C(=O)NCc3cc(C(F)(F)F)ccn3)nn2)nn1 [Example 124, 1-{4-[4-({[3-(pyrrolidin-1-yl)phenyl]methyl}carbamoyl)-1H-1,2,3-triazol-1-yl]butyl}-N-{[4-(trifluoromethyl)pyridin-2-yl]methyl}-1H-1,2,3-triazole-4-carboxamide]
< 100 nM	< 100 nM	Cc1ccc(CNC(=O)c2nnc(CCCCn3cc(C(=O)NCc4cccc(OC(F)(F)F)c4)nn3)s2)cn1 [Example 60, N-[(6-methylpyridin-3-yl)methyl]-5-{4-[4-({[3-(trifluoromethoxy)phenyl]methyl}carbamoyl)-1H-1,2,3-triazol-1-yl]butyl}-1,3,4-thiadiazole-2-carboxamide]
< 100 nM	< 100 nM	O=C(Cc1cccc(OC(F)(F)F)c1)Nc1ccc(CCCCc2nnc(C(=O)NCc3ccccc3)s2)nn1 [Example 36, N-benzyl-5-[4-(6-{2-[3-(trifluoromethoxy)phenyl]acetamido}pyridazin-3-yl)butyl]-1,3,4-thiadiazole-2-carboxamide]
< 100 nM	< 100 nM	O=C(Cc1cc(OC(F)(F)F)ccc1F)Nc1ccc(CCCCn2cc(C(=O)NCc3ccncc3)nn2)nn1 [Example 587, 1-(4-(6-(2-(2-fluoro-5-(trifluoromethoxy)phenyl)acetamido)pyridazin-3-yl)butyl)-N-(pyridin-4-ylmethyl)-1H-1,2,3-triazole-4-carboxamide]
